Test results published in PubChem BioAssay AID504313 (Emory University Molecular Libraries Screening Center, 2011).
Active and inactive are the calls of the source. How the calls were made is not given here.

Biological target: X-box-binding protein 1 (Homo sapiens) (UniProt P17861)
Assay: XBP1 reporter suppression in cells – counter-screen, dose response (AID 504313);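 further: CHO cells carrying an XBP1 reporter stimulated with tunicamycin; potency is for inhibition of the tunicamycin-induced reporter signal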
Settings: XBP1 reporter cell assay, percent of control

**Q.** Which IC50 does the source give for `COC(=O)c1ccc2c(=O)n(CCCCCC(=O)N3CCN(c4ccccc4)CC3)c(=O)[nH]c2c1` here?
**A.** > 10 µM (inactive)

**Q.** `CC(=O)/C=C/n1c(=S)oc2ccccc21` was tested. Which IC50 did it give?
**A.** inactive

**Q.** How did the IC50 turn out when `CCc1ccc(OCC(=O)NC(NC(=S)Nc2ccc(C)cc2C)C(Cl)(Cl)Cl)cc1` (stereo not drawn) was run?
**A.** inactive

**Q.** Which IC50 does the source give for `FC(F)(F)c1cccc(NC(=S)Nc2ccc(Cl)cc2Cl)c1` here?
**A.** > 10 µM (inactive)

**Q.** For `OC(CNCCc1ccc(C(F)(F)F)cc1)COc1ccc2ccccc2c1` (stereo not drawn), which IC50 is on record?
**A.** inactive

**Q.** For `COCCCn1c(N)c(C(=O)NCCC(C)C)c2nc3ccccc3nc21`, which IC50 is on record?
**A.** > 10 µM (inactive)

**Q.** For `Cc1ccc(OCC(=O)N2CCN(c3nnc(-c4ccc(C)cc4)c4ccccc34)CC2)cc1`, which IC50 is on record?
**A.** inactive

**Q.** Which IC50 does the source give for `Cc1cc(C2=NNC(=NC3CC3)SC2)c(C)n1-c1ccccc1F` here?
**A.** < 0.16 µM (inactive)

**Q.** `FC(F)(F)c1cccc(NC(=S)NC(c2ccccc2)c2ccccc2)c1` was tested. Which IC50 did it give?
**A.** > 10 µM (inactive)

**Q.** Which IC50 does the source give for `CCOc1cc(/C=N/NC(=O)Cc2ccc(C(F)(F)F)cc2[N+](=O)[O-])c(Br)cc1OC` here?
**A.** inactive

**Q.** Which IC50 does the source give for `CCOc1cc(C(=O)CSc2nnc(CNc3ccc(Cl)cc3)o2)ccc1NC(=O)CC` here?
**A.** inactive

**Q.** For `COc1cc(N(C(=O)Cc2cccs2)C(C(=O)NC2CCCCC2)c2ccc(C)cc2)ccc1-n1cnnn1` (stereo not drawn), which IC50 is on record?
**A.** > 10 µM (inactive)

**Q.** Which IC50 does the source give for `C[C@H](NC(=O)c1[nH]cnc1C(=O)Nc1ccc(Cl)cc1)C(=O)OC(C)(C)C` here?
**A.** inactive

**Q.** How did the IC50 turn out when `Cc1cccc(C(=O)c2cnc3ccccc3c2-c2ccccc2)c1` was run?
**A.** > 10 µM (inactive)

**Q.** Which IC50 does the source give for `CC(C)(C)c1cc(-c2csc(Nc3ccccc3)[n+]2Cc2ccc(C(=O)O)cc2)cc(C(C)(C)C)c1O` here?
**A.** inactive

**Q.** For `N#CC1=C(N)N2C(=C(C#N)C1c1cccc(Br)c1)Nc1ccccc12` (stereo not drawn), which IC50 is on record?
**A.** inactive

**Q.** How did the IC50 turn out when `O=C1CC(Sc2nnnn2-c2ccccc2)C(=O)N1c1cccc(Cl)c1` (stereo not drawn) was run?
**A.** > 10 µM (inactive)

**Q.** For `CN1/C(=C\C=C\C2=[N+](C)c3ccc4ccccc4c3C2(C)C)C(C)(C)c2ccccc21`, which IC50 is on record?
**A.** < 0.16 µM

**Q.** For `CC(C)=CCc1c(O)cc2oc3c(CC=C(C)C)c(O)c(O)c(CC=C(C)C)c3c(=O)c2c1O`, which IC50 is on record?
**A.** 5.24 µM

**Q.** With `O=C(Cc1ccccc1)NC(=S)Nc1cccc(C(F)(F)F)c1` as the compound, how does the IC50 read?
**A.** inactive

**Q.** How did the IC50 turn out when `C=CCOC(=O)C1=C(C)NC(SCC(=O)Nc2nccs2)=C(C#N)C1c1ccc(Cl)cc1` (stereo not drawn) was run?
**A.** > 10 µM (inactive)

**Q.** How did the IC50 turn out when `Cc1nn(CCC#N)c2nc(-c3ccccc3)cc(C(F)(F)F)c12` was run?
**A.** inactive

**Q.** With `CCC(C)(C)c1ccc(Oc2ccc(N)cc2)cc1` as the compound, how does the IC50 read?
**A.** < 0.16 µM

**Q.** For `CCCCc1nc2ccccc2c(=O)n1NC(=O)c1c(O)c2ccccc2n(C)c1=O`, which IC50 is on record?
**A.** > 10 µM (inactive)

**Q.** With `CC1=C/C(=N\OS(=O)(=O)c2ccccc2)C=CC1=O` as the compound, how does the IC50 read?
**A.** 2.9 µM

**Q.** How did the IC50 turn out when `N#CC(C#N)=C1C=CC=CN1/C(=C\c1ccccc1Cl)C(=O)c1ccccc1` was run?
**A.** inactive

**Q.** With `CC(NC(=O)/C(C#N)=C/c1ccc(Cl)c([N+](=O)[O-])c1)c1ccccc1` (stereo not drawn) as the compound, how does the IC50 read?
**A.** > 10 µM (inactive)

**Q.** `Cc1ccc(N(c2ncnc(N)c2[N+](=O)[O-])C2CCCCC2)cc1` was tested. Which IC50 did it give?
**A.** > 10 µM (inactive)

**Q.** For `CC(C)Cn1c(N)c(C(=O)COC(=O)C2CCCCC2)c(=O)n(C)c1=O`, which IC50 is on record?
**A.** > 10 µM (inactive)

**Q.** `Cc1cccc(NC(=O)CSc2nc(C)c(CC(=O)c3ccc(Br)cc3)c(C)c2C#N)c1C` was tested. Which IC50 did it give?
**A.** inactive

**Q.** With `O=C(O)c1cccc(COc2ccc(CO)cc2Cl)c1` as the compound, how does the IC50 read?
**A.** < 0.16 µM

**Q.** How did the IC50 turn out when `COc1ccc(N=CC2=C(O)c3ccccc3C2=O)c(OC)c1` was run?
**A.** inactive

**Q.** `O=C(NCc1ccccc1Cl)c1ccc(S(=O)(=O)Nc2cccc(C(F)(F)F)c2)cc1` was tested. Which IC50 did it give?
**A.** > 10 µM (inactive)

**Q.** Which IC50 does the source give for `O=C(CNC1CCCCCC1)Nc1ccccc1N1CCCCC1` here?
**A.** inactive

**Q.** For `CCOC(=O)C1=C(c2ccc(OC)cc2)C(=O)c2ccccc2C1=O`, which IC50 is on record?
**A.** inactive

**Q.** With `CCCCc1ccc(Nc2nc(CCC)cc(=O)[nH]2)cc1` as the compound, how does the IC50 read?
**A.** 2.24 µM

**Q.** `OC1(c2cccc(C(F)(F)F)c2)CCN(c2ncnc3c2[nH]c2ccc(F)cc23)CC1` was tested. Which IC50 did it give?
**A.** 3.86 µM

**Q.** Which IC50 does the source give for `NS(=O)(=O)c1ccc(N/N=C2/CCCCC2C2CCCCC2)c([N+](=O)[O-])c1` (stereo not drawn) here?
**A.** 4.48 µM

**Q.** How did the IC50 turn out when `O=S(=O)(Nc1cccc2c1CCCC2)c1cccc(C(F)(F)F)c1` was run?
**A.** inactive

**Q.** With `Cc1cc(C)cc(OC2CCCCC2NS(=O)(=O)c2ccccc2)c1` (stereo not drawn) as the compound, how does the IC50 read?
**A.** > 10 µM (inactive)

**Q.** How did the IC50 turn out when `CCCCc1ccc(NC(=S)Nc2ccc(Cl)c(S(=O)(=O)N(C)C)c2)cc1` was run?
**A.** > 10 µM (inactive)

**Q.** Which IC50 does the source give for `O=[N+]([O-])c1c(NCCCO)cc(Sc2ccc(Cl)cc2)c2nonc12` here?
**A.** inactive

**Q.** For `CC(C)C[C@H](NC(=O)c1nc[nH]c1C(=O)NCC(=O)OC(C)(C)C)C(=O)OCc1ccccc1`, which IC50 is on record?
**A.** inactive

**Q.** Which IC50 does the source give for `CCOc1cc(CNc2ccc(O)cc2)ccc1OCc1ccc(Cl)cc1Cl` here?
**A.** inactive

**Q.** How did the IC50 turn out when `CCCOC(=O)c1ccc(Oc2cn[nH]c2-c2ccc(OC)cc2O)cc1` was run?
**A.** 4.82 µM

**Q.** With `O=C(CCl)Nc1cn(-c2ccccc2)nc1-c1ccc(F)cc1` as the compound, how does the IC50 read?
**A.** > 10 µM (inactive)

**Q.** With `CCCCCCn1c(=O)c(C(=O)N/N=C/c2cccc(F)c2)c(O)c2ccccc21` as the compound, how does the IC50 read?
**A.** inactive

**Q.** For `O=C(Nc1ccc(-c2nc3ccccc3o2)cc1)c1ccc(N2CCOCC2)c([N+](=O)[O-])c1`, which IC50 is on record?
**A.** > 10 µM (inactive)
